# Assay: in vitro
# Details: human, hela cells, % viability
Structure (SMILES),"viability at 28.5 h, 10 µM [%]","viability at 28.5 h, 10 µM (bulk resorufin, single well) [%]"
CC(C)=NNC(=O)CN(c1ccc(C)cc1)S(=O)(=O)c1ccccc1 [CBK262280],99.4,–
O=C1CC(N2CCN(c3ccccn3)CC2)C(=O)N1CCc1ccccc1 (centres unmarked) [CBK262282],77.9,–
Brc1ccc(/C=N\c2ccc3c(c2)ncn3CCn2cnc3cc(/N=C/c4ccc(Br)cc4)ccc32)cc1 [CBK262285],83.9,–
COc1ccccc1/C=N/NC(=O)C(=O)NCc1ccccn1 [CBK262286],93.7,–
O=C(N/N=C/c1ccc(-c2ccc([N+](=O)[O-])cc2)o1)c1cccnc1 [CBK262287],92.3,–
CC(C)CCn1c(=O)c(C(=O)Nc2ccccc2S(N)(=O)=O)c(O)c2ccccc21 [CBK262294],104,–
Cc1ccc(Nc2nc(N/N=C/c3ccccc3)nc(N3CCC(Cc4ccccc4)CC3)n2)cc1 [CBK262296],76.7,–
O=C(Nc1c(Cl)cccc1Cl)c1ccc(-c2ccccc2)cc1 [CBK262300],94.5,–
NC(=O)CCn1c(=S)n(CCC(N)=O)c2ccccc21 [CBK262301],86.2,–
O=P(O)(CCc1ccccc1)CN1CCOCC1 [CBK262305],104,–
Cc1ccc(-c2cc(-c3ccccc3O)nc(N/N=C/c3cccnc3)n2)cc1 [CBK262308],85.2,–
CCOC(=O)c1c(NC(=O)Cc2ccccc2)sc2c1CCC2 [CBK262309],88.4,–
Cc1ccccc1-n1c(Cc2ccccc2)nc2c(cnn2-c2ccccc2)c1=O [CBK262310],91.6,–
O=C1CCCCCN1CP(=O)(O)CCc1ccccc1 [CBK262313],99.7,–
O=C(O)Cc1nn(Cc2ccccc2)c(=O)c2ccccc12 [CBK262315],115,–
O=P(O)(CCc1ccncc1)CN1CCOCC1 [CBK262317],89.3,–
O=C(Nc1ccccc1)Nc1ccc2c(c1)S(=O)(=O)c1cc(NC(=O)Nc3ccccc3)ccc1-2 [CBK262320],94.6,–
N#Cc1c(N)nc2c(c1-c1ccc(Cl)cc1)CCCCCCCCCC2 [CBK262322],90.6,–
O=P(O)(CN1CCCCC1)C1CCCCC1O (centres unmarked) [CBK262325],87.1,–
O=C(CN1C(=O)CCC1=O)NCCc1ccccc1 [CBK262326],98.3,–
O=C1c2ccccc2S(=O)(=O)N1CC(O)Cn1c2ccc(Cl)cc2c2cc(Cl)ccc21 (centres unmarked) [CBK262327],101,–
Cc1cccc(C)c1N(CC(=O)O)S(C)(=O)=O [CBK262329],102,–

Structure (SMILES),"viability at 28.5 h, 10 µM [%]","viability at 28.5 h, 10 µM (bulk resorufin, single well) [%]"
COc1cc(/C=N/NC(=O)CCn2c3ccccc3c3ccccc32)ccc1O [CBK262332],73,–
Cc1ccc(C(=O)NCCCNc2ccc(Cl)cc2[N+](=O)[O-])cc1 [CBK262334],101,–
O=[N+]([O-])c1ccccc1N/C(=N/S(=O)(=O)c1ccccc1)c1ccccc1 [CBK262336],85.8,–
O=C(Nc1cccc(CCc2ccccn2)c1)Nc1cccc2ccccc12 [CBK262337],87.7,–
CC(CCCC(C)(C)O)NCCO (centres unmarked) [CBK262340],96.3,–
CN1CCC(=NNC(=O)C(=O)NCc2ccco2)CC1 [CBK262341],84.6,–
O=C(Cn1c[n+]([N-][N+](=O)[O-])cn1)Nc1ncc(Br)cc1Br [CBK262342],90.9,–
Cc1ccc(NC(=O)CN(c2ccccc2)S(=O)(=O)c2ccccc2[N+](=O)[O-])cc1C [CBK262345],57.7,–
CC(C)N/C(=N/S(=O)(=O)c1ccccc1)c1ccccc1 [CBK262346],98.2,–
O=C1c2ccccc2S(=O)(=O)N1CC(O)Cn1c2ccc(Br)cc2c2cc(Br)ccc21 (centres unmarked) [CBK262347],112,–
O=C(CCn1c(-c2ccccc2)c(-c2ccccc2)c2ccccc21)N/N=C/c1cccc(O)c1 [CBK262348],52.1,–
COc1ccc(-c2nc3c(n2O)CCc2c-3no[n+]2[O-])cc1OC [CBK262350],80.3,–
CN1C(=O)CC(NCc2ccc(S(N)(=O)=O)cc2)C1=O (centres unmarked) [CBK262352],87.4,–
O=C(CCn1c(-c2ccccc2)c(-c2ccccc2)c2ccccc21)N/N=C/c1ccccc1O [CBK262353],66.9,–
COc1ccc(CCN2C(=O)CC(N3CCN(c4ccccc4)CC3)C2=O)cc1OC (centres unmarked) [CBK262354],106,–
CCOC(=O)c1ccc(N/C=C(\C#N)c2nc(-c3cc4ccccc4oc3=O)cs2)cc1 [CBK262356],83.1,–
O=C(O)c1ccc(S(=O)(=O)NCc2ccc3c(c2)OCO3)cc1 [CBK262360],97,–
O=C(O)COc1ccc(Br)cc1/C=N/Nc1cccc2cccnc12 [CBK262362],112,–
Cc1ccc2[nH]c3nc(N/N=C/c4ccc(-c5cccc([N+](=O)[O-])c5)o4)nnc3c2c1 [CBK262365],106,–
N#C/C(=C\Nc1ccc(S(N)(=O)=O)cc1)c1nc(-c2cccc([N+](=O)[O-])c2)cs1 [CBK262366],115,–
O=C(O)COc1ccc(Br)cc1/C=N/Nc1ccccn1 [CBK262369],102,–
O=C(O)c1cc(S(=O)(=O)Nc2ccccc2C(=O)O)ccc1Br [CBK262371],98.8,–

Structure (SMILES),"viability at 28.5 h, 10 µM [%]","viability at 28.5 h, 10 µM (bulk resorufin, single well) [%]"
COc1cc(/C=N\Nc2nnc3c(n2)[nH]c2c(C)cccc23)cc(Br)c1O [CBK262375],106,–
N#C/C(=C\Nc1ccc(S(N)(=O)=O)cc1)c1nc(-c2cc3c(ccc4ccccc43)oc2=O)cs1 [CBK262376],105,–
COc1cc(/C=N/NC(=O)c2nonc2N)ccc1OC(=O)c1cc(F)c(F)cc1Cl [CBK262380],90.1,–
Cc1cccc(C2(c3cccc(C)c3)CC2C(=O)NCc2cccnc2)c1 (centres unmarked) [CBK262382],106,–
O=C(O)CCn1c(SCCc2ccccc2)nc2ccccc21 [CBK262384],107,–
NC(C(=O)O)C(O)c1ccccc1[N+](=O)[O-] (centres unmarked) [CBK262389],92.7,–
COc1cc(C(C)=O)ccc1OC(=O)CN1C(=O)c2ccccc2C1=O [CBK262392],112,–
COc1cccc(C(C(F)(F)F)P(C)(=O)O)c1 (centres unmarked) [CBK262393],96.8,–
CCN(CC)CCCNC=C1C(=O)NC(=O)NC1=O [CBK262403],–,94
O=C(CC1CS(=O)(=O)CC1CC(=O)Nc1cccc(Cl)c1Cl)Nc1cccc(Cl)c1Cl (centres unmarked) [CBK262404],95.3,–
CC1=NN(c2ccc(Cl)cc2)C(=O)/C1=C\Nc1nnn[nH]1 [CBK262407],91,–
COc1ccc(N(C(C)C(=O)N/N=C2\C(=O)Nc3ccccc32)S(C)(=O)=O)cc1 (centres unmarked) [CBK262408],98.5,–
Cc1ccc(N(CC(=O)O)S(=O)(=O)c2ccc(C)cc2)cc1 [CBK262409],106,–
COc1cccc(NC(=O)C2CCCCC2C(=O)O)c1 (centres unmarked) [CBK262410],93.1,–
O=C(O)CSc1nc2ccccc2n1Cc1ccccc1 [CBK262411],94.2,–
Brc1ccc2nc3c(nc2c1)Nc1nonc1N3 [CBK262414],78.5,–
COC(=O)c1ccc(C)c(N(CCO)CCO)c1 [CBK262418],102,–
O=C(O)c1cccc(N(CCO)CCO)c1 [CBK262419],93.6,–
O=CNC(Cc1ccc(O)c([N+](=O)[O-])c1)C(=O)O (centres unmarked) [CBK262421],101,–
O=C(O)c1cc(-c2ccc3c(c2)OCCO3)nc2ccccc12 [CBK262422],92.5,–
Cc1ccc(S(=O)(=O)N(CC(=O)O)c2ccccc2C)cc1 [CBK262423],101,–
O=C1C2C(c3ccccc3Cl)OC3(C(=O)c4ccccc4C3=O)C2C(=O)N1c1ccc([N+](=O)[O-])cc1 (centres unmarked) [CBK262425],101,–

Structure (SMILES),"viability at 28.5 h, 10 µM [%]","viability at 28.5 h, 10 µM (bulk resorufin, single well) [%]"
O=c1cccc2n1CC1CC2CN(Cc2cccc(OCc3ccccc3)c2)C1 (centres unmarked) [CBK262426],102,–
CC1=NN(c2nc(-c3cccc([N+](=O)[O-])c3)cs2)C(=O)C1/N=N/c1ccc(C)c(Br)c1 (centres unmarked) [CBK262430],104,–
C=CCN1C(=O)/C(=C2/Sc3ccc(OC)cc3N2C)S/C1=N\c1cc(C#N)ccc1NCC [CBK262431],108,–
O=C(O)c1ccc(/C=N/Nc2nc(N3CCOCC3)nc(N3CCOCC3)n2)cc1 [CBK262433],99,–
CC1=NN(c2nc(-c3ccc(Br)cc3)cs2)C(=O)C1/N=N/c1ccc(C(=O)O)cc1 (centres unmarked) [CBK262435],86.7,–
COc1cc2c(cc1NC(=O)C/C(C)=N/NC(=O)c1ccccc1F)oc1ccccc12 [CBK262437],106,–
Cn1c(=O)[nH]c(=O)c2c1nc(N1CCOCC1)n2CC(O)COc1ccc(I)cc1 (centres unmarked) [CBK262438],111,–
O=C(O)c1cccc(N2C(=O)C3C(C2=O)C2(c4ccccc4)C(=O)C3(c3ccccc3)C(c3ccccc3)=C2c2ccccc2)c1 (centres unmarked) [CBK262439],84.8,–
O=C(O)Cn1cnc(-c2ccc(Br)cc2)c1 [CBK262441],111,–
COC(=O)c1ccc2c(c1)[n+](CCO)c(C)n2CCO [CBK262443C],88.1,–
CNC(=S)NNC(=O)CN1CCSCC1 [CBK262444],88.3,–
N=C(SC1CC(=O)N(c2ccc(C(=O)O)cc2)C1=O)N1N=C(c2ccccc2)CC1c1ccccc1 (centres unmarked) [CBK262446],90.9,–
COC(=O)Cn1c(=N)n(CCN2CCOCC2)c2ccccc21 [CBK262447B],109,–
O=[N+]([O-])c1ccc(-c2csc(Nc3ccc4c(c3)OCO4)n2)cc1 [CBK262448B],100,–
O=C(NC(c1ccccc1)c1ccccc1)c1ccc(Cl)cc1[N+](=O)[O-] [CBK262452],84.1,–
CCN(CC)CCNc1nc2cc(Cl)ccc2[nH]1 [CBK262453],102,–
COc1cc(/C=N/NC(=O)c2ccncc2)ccc1OCc1ccc(Cl)cc1 [CBK262454],114,–
COc1ccc(C(=O)Nc2ccc(C(C)=O)cc2)cc1[N+](=O)[O-] [CBK262457],90.8,–
CC(/C=C/c1ccc(N(C)C)cc1)=N\NC(=N)SC1CC(=O)N(c2ccc(C(=O)O)cc2)C1=O (centres unmarked) [CBK262460],91.6,–
O=C(N/N=C/c1c[nH]nc1-c1ccccc1)c1cccnc1 [CBK262461],101,–
